Data on seven compounds can be found in publication PMC9569420 (Communications Biology, 2022).

Structures are written as SMILES.

The subject of one data set is MDCK-MDR1 cell. Particulars: 5 µM.
A further data set in a line: in vitro. Particulars: dog, MDCK-MDR1.
Another data set has as its target T1, EIF2AK1 (Homo sapiens, UniProt Q9BQI3).
T1 construct: purchased Reaction Biology Corporation
In words: HotSpot kinase assay. The data set is classed as biochemical. The settings on record: read-out: IC50 (M) of Control Compound. As to the method:
(§1) Kinase activity were performed by Reaction Biology Corporation using the “HotSpot” assay platform modified from the published procedure.

A further data set has as its target T2, DYRK4 (Homo sapiens, UniProt Q9NR20).
T2 construct: purchased Reaction Biology Corporation
Nature of the data set: HotSpot kinase assay. It is filed as biochemical. Particulars: read-out: IC50 (M) of Control Compound. As to the method:
as §1

For another data set, the target named is T3, ZAK/MLTK (Homo sapiens, UniProt Q9NYL2).
T3 construct: purchased Reaction Biology Corporation
Nature of the data set: HotSpot kinase assay. It is filed as biochemical. The settings on record: read-out: IC50 (M) of Control Compound. Here is the method: as §1

In a further data set the target is T4, ARAF (Homo sapiens, UniProt P10398).
T4 construct: purchased Reaction Biology Corporation
In words: HotSpot kinase assay. The settings on record: read-out: IC50 (M) of Control Compound. The data set is classed as biochemical. Here is the method: as §1

The next data set addresses T5, PDK4/PDHK4 (Homo sapiens, UniProt Q16654).
T5 construct: purchased Reaction Biology Corporation
In words: HotSpot kinase assay. The data set is classed as biochemical. Particulars: read-out: IC50 (M) of Control Compound. Here is the method: as §1

In a further data set the target is T6, CK2a (Homo sapiens, UniProt P68400).
T6 construct: purchased Reaction Biology Corporation
Nature of the data set: HotSpot kinase assay. The data set is classed as biochemical. The settings on record: read-out: IC50 (M) of Control Compound. As to the method: as §1

A further data set addresses T7, PDK3/PDHK3 (Homo sapiens, UniProt Q15120).
T7 construct: purchased Reaction Biology Corporation
Nature of the data set: HotSpot kinase assay. It is filed as biochemical. Particulars: read-out: IC50 (M) of Control Compound. As to the method:
as §1

A further data set has as its target T8, PDK1/PDHK1 (Homo sapiens, UniProt Q15118).
T8 construct: purchased Reaction Biology Corporation
In words: HotSpot kinase assay. The settings on record: read-out: IC50 (M) of Control Compound. The data set is classed as biochemical. As to the method: as §1

In another data set the target is T9, PDK2/PDHK2 (Homo sapiens, UniProt Q15119).
T9 construct: purchased Reaction Biology Corporation
Nature of the data set: HotSpot kinase assay. The data set is classed as biochemical. Particulars: read-out: IC50 (M) of Control Compound. Here is the method: as §1

The target in the next data set is T10, NEK3 (Homo sapiens, UniProt P51956).
T10 construct: purchased Reaction Biology Corporation
Nature of the data set: HotSpot kinase assay. The settings on record: read-out: IC50 (M) of Control Compound. It is filed as biochemical. As to the method:
as §1

Another data set has as its target T11, TGFBR2 (Homo sapiens, UniProt P37173).
T11 construct: purchased Reaction Biology Corporation
In words: HotSpot kinase assay. The data set is classed as biochemical. Particulars: read-out: IC50 (M) of Control Compound. Here is the method:
as §1

In the next data set the target is T12, TRPM7/CHAK1 (Homo sapiens, UniProt Q96QT4).
T12 construct: purchased Reaction Biology Corporation
Nature of the data set: HotSpot kinase assay. It is filed as biochemical. Particulars: read-out: IC50 (M) of Control Compound. As to the method:
as §1

The target of another data set is T13, NEK6 (Homo sapiens, UniProt Q9HC98).
T13 construct: purchased Reaction Biology Corporation
In words: HotSpot kinase assay. It is filed as biochemical. The settings on record: read-out: IC50 (M) of Control Compound. As to the method:
as §1

A further data set has as its target T14, NEK7 (Homo sapiens, UniProt Q8TDX7).
T14 construct: purchased Reaction Biology Corporation
Nature of the data set: HotSpot kinase assay. The data set is classed as biochemical. The settings on record: read-out: IC50 (M) of Control Compound. As to the method: as §1

T2 sequence (Q9NR20 whole entry): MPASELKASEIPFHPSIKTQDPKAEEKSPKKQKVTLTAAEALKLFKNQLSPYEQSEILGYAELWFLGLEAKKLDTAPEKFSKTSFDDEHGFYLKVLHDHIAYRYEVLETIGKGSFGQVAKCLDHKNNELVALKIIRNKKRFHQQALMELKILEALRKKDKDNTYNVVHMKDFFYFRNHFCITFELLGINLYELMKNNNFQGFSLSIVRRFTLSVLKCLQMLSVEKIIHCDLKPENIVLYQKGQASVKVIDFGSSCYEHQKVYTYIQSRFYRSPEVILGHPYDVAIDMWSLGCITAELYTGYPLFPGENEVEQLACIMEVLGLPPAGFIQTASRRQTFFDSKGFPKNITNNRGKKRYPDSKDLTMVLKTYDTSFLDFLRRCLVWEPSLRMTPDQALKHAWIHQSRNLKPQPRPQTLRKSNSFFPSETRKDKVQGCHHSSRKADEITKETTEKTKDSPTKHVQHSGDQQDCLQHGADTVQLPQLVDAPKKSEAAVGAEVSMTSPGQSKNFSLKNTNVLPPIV
T1 sequence (Q9BQI3 whole entry): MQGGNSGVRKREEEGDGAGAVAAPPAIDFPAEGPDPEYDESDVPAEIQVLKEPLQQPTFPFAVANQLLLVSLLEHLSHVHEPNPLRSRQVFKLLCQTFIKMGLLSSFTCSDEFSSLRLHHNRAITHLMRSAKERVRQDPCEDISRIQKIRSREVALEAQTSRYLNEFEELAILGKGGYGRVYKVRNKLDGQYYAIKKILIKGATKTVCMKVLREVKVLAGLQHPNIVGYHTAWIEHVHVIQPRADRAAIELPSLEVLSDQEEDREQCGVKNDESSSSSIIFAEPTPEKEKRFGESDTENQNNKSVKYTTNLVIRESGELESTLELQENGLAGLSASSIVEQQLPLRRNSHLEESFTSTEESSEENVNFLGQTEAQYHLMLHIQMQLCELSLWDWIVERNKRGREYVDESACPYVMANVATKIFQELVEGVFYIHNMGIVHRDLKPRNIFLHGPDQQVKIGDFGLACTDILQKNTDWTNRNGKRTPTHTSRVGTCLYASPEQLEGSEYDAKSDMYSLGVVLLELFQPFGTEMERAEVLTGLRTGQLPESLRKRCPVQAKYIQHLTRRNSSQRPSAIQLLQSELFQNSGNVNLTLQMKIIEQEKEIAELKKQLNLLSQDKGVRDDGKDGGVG
T4 sequence (P10398 whole entry): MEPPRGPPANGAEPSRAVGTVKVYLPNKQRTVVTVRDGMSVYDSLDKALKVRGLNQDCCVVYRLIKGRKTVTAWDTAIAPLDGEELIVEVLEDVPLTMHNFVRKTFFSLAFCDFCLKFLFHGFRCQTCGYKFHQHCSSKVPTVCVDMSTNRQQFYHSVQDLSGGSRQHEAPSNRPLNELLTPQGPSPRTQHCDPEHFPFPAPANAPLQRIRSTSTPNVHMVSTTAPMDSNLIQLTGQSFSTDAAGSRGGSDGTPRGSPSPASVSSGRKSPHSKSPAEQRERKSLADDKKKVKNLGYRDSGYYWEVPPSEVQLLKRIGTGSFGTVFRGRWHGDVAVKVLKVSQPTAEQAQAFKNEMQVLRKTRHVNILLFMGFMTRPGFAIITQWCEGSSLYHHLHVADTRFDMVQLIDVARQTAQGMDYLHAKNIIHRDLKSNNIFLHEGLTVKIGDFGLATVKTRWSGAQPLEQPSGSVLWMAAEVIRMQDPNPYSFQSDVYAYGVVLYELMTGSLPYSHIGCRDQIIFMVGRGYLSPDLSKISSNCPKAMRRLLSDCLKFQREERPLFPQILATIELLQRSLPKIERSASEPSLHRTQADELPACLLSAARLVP
T14 sequence (Q8TDX7 whole entry): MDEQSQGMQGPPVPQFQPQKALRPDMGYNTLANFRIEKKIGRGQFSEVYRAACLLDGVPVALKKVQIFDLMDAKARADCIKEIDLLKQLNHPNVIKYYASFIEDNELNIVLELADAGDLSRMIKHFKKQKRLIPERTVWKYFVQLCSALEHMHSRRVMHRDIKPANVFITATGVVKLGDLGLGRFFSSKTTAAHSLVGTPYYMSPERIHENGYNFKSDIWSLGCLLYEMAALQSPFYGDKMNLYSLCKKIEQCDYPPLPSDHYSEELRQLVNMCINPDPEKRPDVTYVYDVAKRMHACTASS
T12 sequence (Q96QT4 whole entry): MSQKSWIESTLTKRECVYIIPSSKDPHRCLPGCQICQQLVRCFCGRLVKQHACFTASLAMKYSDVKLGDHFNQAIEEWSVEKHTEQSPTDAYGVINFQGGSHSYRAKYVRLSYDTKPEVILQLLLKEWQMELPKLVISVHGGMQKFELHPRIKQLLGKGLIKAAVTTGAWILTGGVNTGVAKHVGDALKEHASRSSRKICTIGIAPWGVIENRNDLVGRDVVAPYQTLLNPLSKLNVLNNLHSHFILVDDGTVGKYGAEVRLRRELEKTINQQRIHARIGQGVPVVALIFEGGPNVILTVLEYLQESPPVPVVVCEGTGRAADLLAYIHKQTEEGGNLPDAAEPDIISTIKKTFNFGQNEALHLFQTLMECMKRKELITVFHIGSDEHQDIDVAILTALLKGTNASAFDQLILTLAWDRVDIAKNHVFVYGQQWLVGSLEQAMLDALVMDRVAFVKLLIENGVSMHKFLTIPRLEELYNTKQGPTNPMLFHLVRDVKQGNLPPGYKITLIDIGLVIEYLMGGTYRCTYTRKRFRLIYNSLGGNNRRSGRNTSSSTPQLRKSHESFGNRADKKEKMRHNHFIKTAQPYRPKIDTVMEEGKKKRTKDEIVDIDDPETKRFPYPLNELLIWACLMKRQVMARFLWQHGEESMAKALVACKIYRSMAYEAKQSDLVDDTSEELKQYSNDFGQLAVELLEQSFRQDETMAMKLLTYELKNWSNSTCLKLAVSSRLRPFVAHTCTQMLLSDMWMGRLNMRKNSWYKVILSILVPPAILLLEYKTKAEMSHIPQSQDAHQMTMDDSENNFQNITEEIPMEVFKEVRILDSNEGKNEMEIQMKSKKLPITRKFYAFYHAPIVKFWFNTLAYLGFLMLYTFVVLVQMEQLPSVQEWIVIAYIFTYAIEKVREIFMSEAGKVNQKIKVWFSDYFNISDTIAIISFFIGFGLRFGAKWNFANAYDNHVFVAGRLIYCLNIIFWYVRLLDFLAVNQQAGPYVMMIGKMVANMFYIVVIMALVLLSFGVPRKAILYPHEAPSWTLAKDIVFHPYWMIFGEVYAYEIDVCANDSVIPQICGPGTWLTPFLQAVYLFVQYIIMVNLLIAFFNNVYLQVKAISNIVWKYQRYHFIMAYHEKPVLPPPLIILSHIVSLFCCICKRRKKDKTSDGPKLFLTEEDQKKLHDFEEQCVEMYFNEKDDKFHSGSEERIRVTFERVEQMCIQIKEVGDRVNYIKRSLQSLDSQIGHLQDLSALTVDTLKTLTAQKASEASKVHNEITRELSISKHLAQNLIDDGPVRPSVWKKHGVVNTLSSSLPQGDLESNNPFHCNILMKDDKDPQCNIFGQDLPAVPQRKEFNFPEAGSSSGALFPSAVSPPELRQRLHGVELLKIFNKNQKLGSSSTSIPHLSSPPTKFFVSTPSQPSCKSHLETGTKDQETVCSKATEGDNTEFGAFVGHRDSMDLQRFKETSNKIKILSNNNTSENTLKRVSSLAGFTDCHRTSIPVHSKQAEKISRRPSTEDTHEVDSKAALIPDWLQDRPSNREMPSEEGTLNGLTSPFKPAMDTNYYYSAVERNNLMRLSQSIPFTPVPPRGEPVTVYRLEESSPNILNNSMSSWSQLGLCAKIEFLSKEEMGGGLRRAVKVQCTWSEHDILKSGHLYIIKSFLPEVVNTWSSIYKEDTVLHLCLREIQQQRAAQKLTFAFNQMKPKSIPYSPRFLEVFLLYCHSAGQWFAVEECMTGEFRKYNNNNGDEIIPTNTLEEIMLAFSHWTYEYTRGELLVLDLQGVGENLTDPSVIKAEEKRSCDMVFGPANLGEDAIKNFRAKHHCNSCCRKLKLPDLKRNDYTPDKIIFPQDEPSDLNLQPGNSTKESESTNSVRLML
T3 sequence (Q9NYL2 whole entry): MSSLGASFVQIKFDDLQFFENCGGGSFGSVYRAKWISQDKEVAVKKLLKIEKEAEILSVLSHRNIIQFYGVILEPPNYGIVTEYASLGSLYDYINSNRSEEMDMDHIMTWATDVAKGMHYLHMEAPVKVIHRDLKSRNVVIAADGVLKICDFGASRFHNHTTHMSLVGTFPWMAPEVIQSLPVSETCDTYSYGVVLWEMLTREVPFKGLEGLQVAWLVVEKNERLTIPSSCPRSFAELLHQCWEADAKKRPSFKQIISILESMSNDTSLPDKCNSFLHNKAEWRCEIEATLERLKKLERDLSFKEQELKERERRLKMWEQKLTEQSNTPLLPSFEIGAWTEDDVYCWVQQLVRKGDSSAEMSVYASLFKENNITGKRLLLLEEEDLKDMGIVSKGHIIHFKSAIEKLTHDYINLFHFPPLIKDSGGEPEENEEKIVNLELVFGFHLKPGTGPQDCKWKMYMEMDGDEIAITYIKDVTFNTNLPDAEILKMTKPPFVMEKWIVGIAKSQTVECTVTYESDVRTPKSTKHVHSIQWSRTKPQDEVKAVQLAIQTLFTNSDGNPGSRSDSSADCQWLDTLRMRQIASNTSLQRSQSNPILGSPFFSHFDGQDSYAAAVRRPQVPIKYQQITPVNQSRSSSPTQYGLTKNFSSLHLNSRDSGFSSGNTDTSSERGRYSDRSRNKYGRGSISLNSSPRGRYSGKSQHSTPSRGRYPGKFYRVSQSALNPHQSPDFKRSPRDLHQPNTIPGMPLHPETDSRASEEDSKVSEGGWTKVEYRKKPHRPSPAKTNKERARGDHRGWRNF
T13 sequence (Q9HC98 whole entry): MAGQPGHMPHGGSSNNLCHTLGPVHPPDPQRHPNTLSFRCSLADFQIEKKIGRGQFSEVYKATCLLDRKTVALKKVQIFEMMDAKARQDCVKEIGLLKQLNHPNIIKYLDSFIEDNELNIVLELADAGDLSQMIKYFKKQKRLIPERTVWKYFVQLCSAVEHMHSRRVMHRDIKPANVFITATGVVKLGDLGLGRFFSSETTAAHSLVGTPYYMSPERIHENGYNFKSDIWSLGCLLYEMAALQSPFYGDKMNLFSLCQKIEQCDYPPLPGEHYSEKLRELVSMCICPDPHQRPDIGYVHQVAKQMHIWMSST

`C[C@H]1O[C@@H](O[C@H]2[C@@H](O)C[C@H](O[C@H]3[C@@H](O)C[C@H](O[C@H]4CC[C@@]5(C)[C@H](CC[C@@H]6[C@@H]5C[C@@H](O)[C@]5(C)[C@@H](C7=CC(=O)OC7)CC[C@]65O)C4)O[C@@H]3C)O[C@@H]2C)C[C@H](O)[C@@H]1O` [Digoxin] came in with a Recover % in the data set on MDCK-MDR1 cell of 96%. The apparent permeability (Papp) at 1 h, 5 μM in “in vitro” is 3.1 ×10⁻⁶ cm/s.

In the case of `Cn1cc(-c2ccc3c(c2)CCN3C(=O)Cc2cccc(C(F)(F)F)c2)c2c(N)ncnc21` [GSK-2606414, reference compound], the concentration for half-maximal inhibition (IC50) on EIF2AK1 came out at 9.62e-08 M.

On to `O=C1Nc2ccc(I)cc2/C1=C/c1cc(Br)c(O)c(Br)c1` [GW5074, reference compound], for which the IC50 on DYRK4 is 4.12e-06 M; on ZAK/MLTK, 1.89e-06 M; at ARAF it was 1.39e-08 M; on PDK4/PDHK4, 1.89e-06 M; on CK2a it was 2.67e-07 M; at PDK3/PDHK3, 2.57e-06 M. Moreover, the IC50 amounted to 8.63e-06 M on PDK1/PDHK1 and 5.05e-06 M on PDK2/PDHK2.

Turning to `CN(C)C/C=C/C(=O)Nc1cccc(C(=O)Nc2ccc(Nc3nccc(-c4cccnc4)n3)cc2)c1` [JNK-IN-7, reference compound], the half-maximal inhibitory concentration (IC50) at NEK3 worked out at 5.46e-08 M.

As to `c1ccc2c(-c3cnn4cc(-c5ccc(N6CCNCC6)cc5)cnc34)ccnc2c1` [LDN193189, reference compound], at TGFBR2, the 50% inhibitory concentration (IC50) was determined as 1.09e-07 M.

For the compound `CCCCCCCCCCCCCCCCn1cc[n+](Cc2ccccc2)c1C` [NH125, reference compound], the 50% inhibitory concentration (IC50) at TRPM7/CHAK1 came to 2.34e-05 M.

On to `O=C1Nc2ccc3ncsc3c2/C1=C/c1cnc[nH]1` [PKR Inhibitor, reference compound], for which the results for the IC50 at NEK6 and at NEK7 were 9.32e-06 M and 8.35e-06 M, respectively.
